From the kinase profiling compilation of Christmann-Franck et al. (2016) come the findings set out here.

“And” between values parts separate entries of the source, which are not always exact repeats. Identical values can stand only once.

HIPK1 (human), sequence (Q86Z02 whole entry, looked up): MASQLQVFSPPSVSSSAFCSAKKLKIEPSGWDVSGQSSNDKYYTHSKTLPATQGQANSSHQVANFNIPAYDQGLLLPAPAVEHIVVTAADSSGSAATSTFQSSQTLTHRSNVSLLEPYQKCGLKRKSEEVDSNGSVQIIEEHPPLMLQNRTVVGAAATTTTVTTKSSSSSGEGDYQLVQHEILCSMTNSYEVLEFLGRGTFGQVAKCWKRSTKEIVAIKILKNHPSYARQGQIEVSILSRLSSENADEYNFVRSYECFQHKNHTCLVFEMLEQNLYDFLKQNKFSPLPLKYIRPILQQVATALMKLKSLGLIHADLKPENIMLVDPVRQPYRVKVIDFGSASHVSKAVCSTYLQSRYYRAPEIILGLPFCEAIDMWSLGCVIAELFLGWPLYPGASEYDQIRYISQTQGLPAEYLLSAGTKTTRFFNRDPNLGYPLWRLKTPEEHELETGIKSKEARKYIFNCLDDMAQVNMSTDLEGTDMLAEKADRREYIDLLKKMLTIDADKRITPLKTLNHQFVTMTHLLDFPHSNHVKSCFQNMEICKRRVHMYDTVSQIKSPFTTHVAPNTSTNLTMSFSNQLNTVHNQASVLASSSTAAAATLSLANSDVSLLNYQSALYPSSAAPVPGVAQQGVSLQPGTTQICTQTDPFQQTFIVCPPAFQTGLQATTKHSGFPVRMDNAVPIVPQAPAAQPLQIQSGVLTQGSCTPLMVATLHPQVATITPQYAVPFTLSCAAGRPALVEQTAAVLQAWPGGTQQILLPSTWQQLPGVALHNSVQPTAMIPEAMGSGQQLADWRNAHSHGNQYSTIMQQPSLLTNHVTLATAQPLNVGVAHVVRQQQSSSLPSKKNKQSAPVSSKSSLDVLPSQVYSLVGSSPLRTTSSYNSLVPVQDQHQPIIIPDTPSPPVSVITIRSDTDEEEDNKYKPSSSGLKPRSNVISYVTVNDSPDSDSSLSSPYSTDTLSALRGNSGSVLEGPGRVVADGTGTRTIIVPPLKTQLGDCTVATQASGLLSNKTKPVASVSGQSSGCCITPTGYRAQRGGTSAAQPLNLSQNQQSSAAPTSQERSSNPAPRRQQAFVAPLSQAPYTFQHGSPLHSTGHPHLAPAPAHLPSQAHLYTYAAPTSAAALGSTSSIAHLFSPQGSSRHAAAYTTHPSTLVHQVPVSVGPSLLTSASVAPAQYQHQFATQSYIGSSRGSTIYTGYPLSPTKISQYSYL
SRPK2 (human), sequence (P78362 whole entry, looked up): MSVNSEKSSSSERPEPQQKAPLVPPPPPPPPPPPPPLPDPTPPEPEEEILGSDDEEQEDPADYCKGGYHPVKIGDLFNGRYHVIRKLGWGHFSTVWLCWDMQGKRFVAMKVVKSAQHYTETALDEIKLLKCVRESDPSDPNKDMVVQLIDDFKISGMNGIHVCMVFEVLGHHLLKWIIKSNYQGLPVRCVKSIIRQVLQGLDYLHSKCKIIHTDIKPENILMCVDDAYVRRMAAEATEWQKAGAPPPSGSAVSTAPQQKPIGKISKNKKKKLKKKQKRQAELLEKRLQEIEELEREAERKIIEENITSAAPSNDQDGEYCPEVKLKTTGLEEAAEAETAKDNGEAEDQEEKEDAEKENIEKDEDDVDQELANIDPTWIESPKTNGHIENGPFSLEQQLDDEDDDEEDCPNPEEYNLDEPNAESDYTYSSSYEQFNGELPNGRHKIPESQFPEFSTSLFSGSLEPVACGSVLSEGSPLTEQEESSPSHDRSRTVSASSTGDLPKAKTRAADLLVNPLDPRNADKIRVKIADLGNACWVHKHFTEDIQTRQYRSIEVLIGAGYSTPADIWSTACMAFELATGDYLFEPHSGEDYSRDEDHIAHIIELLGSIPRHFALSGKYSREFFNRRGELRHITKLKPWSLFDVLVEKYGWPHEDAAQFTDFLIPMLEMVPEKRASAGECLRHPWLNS
PBK (human), sequence (Q96KB5 whole entry, looked up): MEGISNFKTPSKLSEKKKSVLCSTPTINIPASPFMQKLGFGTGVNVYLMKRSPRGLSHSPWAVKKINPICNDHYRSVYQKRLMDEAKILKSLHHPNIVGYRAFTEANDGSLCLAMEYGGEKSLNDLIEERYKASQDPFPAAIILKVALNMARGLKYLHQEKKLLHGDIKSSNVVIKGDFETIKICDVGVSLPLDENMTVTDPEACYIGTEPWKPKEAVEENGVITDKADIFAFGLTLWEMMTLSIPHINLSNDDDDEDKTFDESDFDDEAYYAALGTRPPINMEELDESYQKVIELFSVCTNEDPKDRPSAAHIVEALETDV

The target in one experiment is FRK (human) (UniProt P42685). Briefly: radiometric filter-binding kinase assay, Kinase HotSpot. The conditions noted are these: compound 0.5 µM; ATP 10 µM.
FRK (human), sequence (P42685 whole entry, looked up): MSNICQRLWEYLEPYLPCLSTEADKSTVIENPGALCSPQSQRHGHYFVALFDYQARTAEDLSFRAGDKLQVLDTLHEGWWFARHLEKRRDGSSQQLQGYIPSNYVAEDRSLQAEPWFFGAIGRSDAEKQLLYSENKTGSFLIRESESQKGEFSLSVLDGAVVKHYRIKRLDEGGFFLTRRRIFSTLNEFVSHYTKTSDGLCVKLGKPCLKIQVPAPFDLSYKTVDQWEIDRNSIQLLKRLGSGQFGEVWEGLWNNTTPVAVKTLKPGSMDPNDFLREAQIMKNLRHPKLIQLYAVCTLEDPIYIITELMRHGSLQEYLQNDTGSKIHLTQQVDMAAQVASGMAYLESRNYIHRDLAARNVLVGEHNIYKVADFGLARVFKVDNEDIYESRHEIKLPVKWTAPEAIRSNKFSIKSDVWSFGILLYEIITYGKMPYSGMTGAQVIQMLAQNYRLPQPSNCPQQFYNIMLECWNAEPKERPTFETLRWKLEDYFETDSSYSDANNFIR
As usually defined, the residual activity is the signal under treatment as a percentage of the control signal. Turning to `Cc1ccc(Nc2nccc(N(C)c3ccc4c(C)n(C)nc4c3)n2)cc1S(N)(=O)=O`, the residual activity turned out to be 58.1%.

`O=C1Nc2ccc(Cl)cc2/C1=C/c1cc(Cl)c(O)c(Cl)c1`: the residual activity turned out to be 70.3%.

Regarding `O=C1NC(=O)/C(=C/c2ccc3c(c2)OC(F)(F)O3)S1`, the residual activity came out at 93.4%.

A further experiment has as its target JAK3 JH1 JH2 (human) (UniProt P52333). The experiment is described as above. The note with it: compound 0.5 µM; ATP 10 µM.
Take `Cc1ccc(Nc2nccc(N(C)c3ccc4c(C)n(C)nc4c3)n2)cc1S(N)(=O)=O`: the residual activity came to 95.3%.

`O=C1Nc2ccc(Cl)cc2/C1=C/c1cc(Cl)c(O)c(Cl)c1`: the residual activity is 100%.

As for `O=C1NC(=O)/C(=C/c2ccc3c(c2)OC(F)(F)O3)S1`, the residual activity worked out at 98.6%.

In another experiment the target is MKNK2 (human) (UniProt Q9HBH9). Described as above. The conditions noted are these: compound 0.5 µM; ATP 10 µM.
In the case of `Cc1ccc(Nc2nccc(N(C)c3ccc4c(C)n(C)nc4c3)n2)cc1S(N)(=O)=O`, the residual activity amounted to 107%.

In the case of `O=C1Nc2ccc(Cl)cc2/C1=C/c1cc(Cl)c(O)c(Cl)c1`, the residual activity is 88.7%.

For the compound `O=C1NC(=O)/C(=C/c2ccc3c(c2)OC(F)(F)O3)S1`, the residual activity stood at 98.3%.

The next experiment addresses MAP4K2 (human) (UniProt Q12851). The description is as above. The conditions noted are these: compound 0.5 µM; ATP 10 µM.
Regarding `Cc1ccc(Nc2nccc(N(C)c3ccc4c(C)n(C)nc4c3)n2)cc1S(N)(=O)=O`, the residual activity came out at 72.5%.

With `O=C1Nc2ccc(Cl)cc2/C1=C/c1cc(Cl)c(O)c(Cl)c1`, the residual activity was determined as 62.6%.

With `O=C1NC(=O)/C(=C/c2ccc3c(c2)OC(F)(F)O3)S1`, the residual activity came out at 90.7%.

The next experiment has as its target ITK (human) (UniProt Q08881). The experiment is described as above. The note with it: compound 0.5 µM; ATP 10 µM.
As to `Cc1ccc(Nc2nccc(N(C)c3ccc4c(C)n(C)nc4c3)n2)cc1S(N)(=O)=O`, the residual activity worked out at 115%.

As for `O=C1Nc2ccc(Cl)cc2/C1=C/c1cc(Cl)c(O)c(Cl)c1`, the residual activity amounted to 91.8%.

`O=C1NC(=O)/C(=C/c2ccc3c(c2)OC(F)(F)O3)S1`: the residual activity was 92.9%.

The target of another experiment is PNCK (human) (UniProt Q6P2M8). The experiment is described as above. The note with it: compound 0.5 µM; ATP 10 µM.
PNCK (human), sequence (Q6P2M8 whole entry, looked up): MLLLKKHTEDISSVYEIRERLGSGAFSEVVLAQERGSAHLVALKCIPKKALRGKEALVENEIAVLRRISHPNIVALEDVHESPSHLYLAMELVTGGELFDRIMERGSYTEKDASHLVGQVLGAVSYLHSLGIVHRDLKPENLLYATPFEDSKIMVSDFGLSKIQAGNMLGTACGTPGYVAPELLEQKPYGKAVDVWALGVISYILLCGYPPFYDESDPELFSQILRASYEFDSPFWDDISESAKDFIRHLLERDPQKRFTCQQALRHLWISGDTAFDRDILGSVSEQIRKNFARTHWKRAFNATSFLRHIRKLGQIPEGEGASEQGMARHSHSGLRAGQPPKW
`Cc1ccc(Nc2nccc(N(C)c3ccc4c(C)n(C)nc4c3)n2)cc1S(N)(=O)=O`: the residual activity was 95.9%.

As to `O=C1Nc2ccc(Cl)cc2/C1=C/c1cc(Cl)c(O)c(Cl)c1`, the residual activity came to 94.2%.

Take `O=C1NC(=O)/C(=C/c2ccc3c(c2)OC(F)(F)O3)S1`: the residual activity turned out to be 96%.

The target of the next experiment is PRKACA (human) (UniProt P17612). Described as above. The note with it: compound 0.5 µM; ATP 10 µM.
On to `Cc1ccc(Nc2nccc(N(C)c3ccc4c(C)n(C)nc4c3)n2)cc1S(N)(=O)=O`, for which the residual activity came out at 94.5%.

On to `O=C1Nc2ccc(Cl)cc2/C1=C/c1cc(Cl)c(O)c(Cl)c1`, for which the residual activity stood at 101%.

For the compound `O=C1NC(=O)/C(=C/c2ccc3c(c2)OC(F)(F)O3)S1`, the residual activity was found to be 101%.

Another experiment has as its target HIPK1 (human) (UniProt Q86Z02). Described as above. The note with it: compound 0.5 µM; ATP 10 µM.
For `Cc1ccc(Nc2nccc(N(C)c3ccc4c(C)n(C)nc4c3)n2)cc1S(N)(=O)=O`, the residual activity is 97.6%.

Consider `O=C1Nc2ccc(Cl)cc2/C1=C/c1cc(Cl)c(O)c(Cl)c1`, for which the residual activity came to 102%.

For `O=C1NC(=O)/C(=C/c2ccc3c(c2)OC(F)(F)O3)S1`, the residual activity was 95.9%.

The target in a further experiment is STK24 (human) (UniProt Q9Y6E0). The experiment is described as above. The note with it: compound 0.5 µM; ATP 10 µM.
Take `Cc1ccc(Nc2nccc(N(C)c3ccc4c(C)n(C)nc4c3)n2)cc1S(N)(=O)=O`: the residual activity worked out at 106%.

Consider `O=C1Nc2ccc(Cl)cc2/C1=C/c1cc(Cl)c(O)c(Cl)c1`, for which the residual activity amounted to 104%.

With `O=C1NC(=O)/C(=C/c2ccc3c(c2)OC(F)(F)O3)S1`, the residual activity is 91.9%.

A further experiment addresses STK38 (human) (UniProt Q15208). The experiment is described as above. The note with it: compound 0.5 µM; ATP 10 µM.
`Cc1ccc(Nc2nccc(N(C)c3ccc4c(C)n(C)nc4c3)n2)cc1S(N)(=O)=O`: the residual activity was 100%.

For the compound `O=C1Nc2ccc(Cl)cc2/C1=C/c1cc(Cl)c(O)c(Cl)c1`, the residual activity worked out at 85.4%.

Take `O=C1NC(=O)/C(=C/c2ccc3c(c2)OC(F)(F)O3)S1`: the residual activity came out at 107%.

In another experiment the target is CDK4 CCND1 (human) (UniProt P24385+P11802). The experiment is described as above. The conditions noted are these: compound 0.5 µM; ATP 10 µM.
For the compound `Cc1ccc(Nc2nccc(N(C)c3ccc4c(C)n(C)nc4c3)n2)cc1S(N)(=O)=O`, the residual activity is 88.4%.

Regarding `O=C1Nc2ccc(Cl)cc2/C1=C/c1cc(Cl)c(O)c(Cl)c1`, the residual activity was found to be 94.7%.

For `O=C1NC(=O)/C(=C/c2ccc3c(c2)OC(F)(F)O3)S1`, the residual activity is 97.1%.

A further experiment deals with CHEK1 (human) (UniProt O14757). The description is as above. The conditions noted are these: compound 0.5 µM; ATP 10 µM.
Regarding `Cc1ccc(Nc2nccc(N(C)c3ccc4c(C)n(C)nc4c3)n2)cc1S(N)(=O)=O`, the residual activity turned out to be 110%.

Consider `O=C1Nc2ccc(Cl)cc2/C1=C/c1cc(Cl)c(O)c(Cl)c1`, for which the residual activity is 86.4%.

Take `O=C1NC(=O)/C(=C/c2ccc3c(c2)OC(F)(F)O3)S1`: the residual activity is 101%.

The next experiment concerns the target CDK6 CCND3 (human) (UniProt P30281+Q00534). The experiment is described as above. The conditions noted are these: compound 0.5 µM; ATP 10 µM.
For `Cc1ccc(Nc2nccc(N(C)c3ccc4c(C)n(C)nc4c3)n2)cc1S(N)(=O)=O`, the residual activity was 96.1%.

On to `O=C1Nc2ccc(Cl)cc2/C1=C/c1cc(Cl)c(O)c(Cl)c1`, for which the residual activity is 94.1%.

As to `O=C1NC(=O)/C(=C/c2ccc3c(c2)OC(F)(F)O3)S1`, the residual activity came out at 92.6%.

For a further experiment, the target named is TGFBR2 (human) (UniProt P37173). The description is as above. The conditions noted are these: compound 0.5 µM; ATP 10 µM.
TGFBR2 (human), sequence (P37173 whole entry, looked up): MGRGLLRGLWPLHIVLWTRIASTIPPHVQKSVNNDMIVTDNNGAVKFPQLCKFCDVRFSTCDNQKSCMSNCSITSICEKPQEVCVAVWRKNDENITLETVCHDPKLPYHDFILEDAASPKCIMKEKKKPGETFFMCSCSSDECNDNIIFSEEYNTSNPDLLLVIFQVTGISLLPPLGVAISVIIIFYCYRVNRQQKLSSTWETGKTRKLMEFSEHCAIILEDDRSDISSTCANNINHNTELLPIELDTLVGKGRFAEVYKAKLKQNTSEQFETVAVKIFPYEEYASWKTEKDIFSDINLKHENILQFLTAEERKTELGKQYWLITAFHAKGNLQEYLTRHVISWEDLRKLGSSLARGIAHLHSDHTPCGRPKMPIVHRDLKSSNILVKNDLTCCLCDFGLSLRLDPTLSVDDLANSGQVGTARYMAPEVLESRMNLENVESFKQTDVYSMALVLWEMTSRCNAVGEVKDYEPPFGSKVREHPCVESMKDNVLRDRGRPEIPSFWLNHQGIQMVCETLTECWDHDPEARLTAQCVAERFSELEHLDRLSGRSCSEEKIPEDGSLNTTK
For the compound `Cc1ccc(Nc2nccc(N(C)c3ccc4c(C)n(C)nc4c3)n2)cc1S(N)(=O)=O`, the residual activity came out at 100%.

With `O=C1Nc2ccc(Cl)cc2/C1=C/c1cc(Cl)c(O)c(Cl)c1`, the residual activity is 94.9%.

Take `O=C1NC(=O)/C(=C/c2ccc3c(c2)OC(F)(F)O3)S1`: the residual activity came out at 107%.

Another experiment concerns the target CDK4 CCND3 (human) (UniProt P30281+P11802). The experiment is described as above. The note with it: compound 0.5 µM; ATP 10 µM.
Regarding `Cc1ccc(Nc2nccc(N(C)c3ccc4c(C)n(C)nc4c3)n2)cc1S(N)(=O)=O`, the residual activity is 96%.

For `O=C1Nc2ccc(Cl)cc2/C1=C/c1cc(Cl)c(O)c(Cl)c1`, the residual activity worked out at 94.8%.

Take `O=C1NC(=O)/C(=C/c2ccc3c(c2)OC(F)(F)O3)S1`: the residual activity is 98.2%.

The target of a further experiment is IRAK1 (human) (UniProt P51617). The experiment is described as above. The conditions noted are these: compound 0.5 µM; ATP 10 µM.
IRAK1 (human), sequence (P51617 whole entry, looked up): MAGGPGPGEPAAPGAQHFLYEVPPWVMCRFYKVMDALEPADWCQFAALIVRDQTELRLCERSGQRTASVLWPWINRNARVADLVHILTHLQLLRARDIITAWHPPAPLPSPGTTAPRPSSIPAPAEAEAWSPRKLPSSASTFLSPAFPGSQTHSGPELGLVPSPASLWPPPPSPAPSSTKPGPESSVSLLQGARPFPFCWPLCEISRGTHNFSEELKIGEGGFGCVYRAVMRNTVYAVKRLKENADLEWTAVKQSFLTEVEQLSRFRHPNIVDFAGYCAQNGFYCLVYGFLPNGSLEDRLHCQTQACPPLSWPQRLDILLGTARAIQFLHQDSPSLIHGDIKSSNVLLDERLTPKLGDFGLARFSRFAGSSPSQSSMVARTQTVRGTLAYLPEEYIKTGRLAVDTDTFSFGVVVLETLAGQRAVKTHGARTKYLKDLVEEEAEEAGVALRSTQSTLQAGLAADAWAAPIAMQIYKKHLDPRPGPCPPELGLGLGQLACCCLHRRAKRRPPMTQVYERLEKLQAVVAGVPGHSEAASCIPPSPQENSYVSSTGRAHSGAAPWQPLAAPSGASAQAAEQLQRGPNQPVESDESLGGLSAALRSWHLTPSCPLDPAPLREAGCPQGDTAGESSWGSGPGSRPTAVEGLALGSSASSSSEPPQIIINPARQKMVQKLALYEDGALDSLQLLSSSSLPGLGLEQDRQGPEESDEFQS
`Cc1ccc(Nc2nccc(N(C)c3ccc4c(C)n(C)nc4c3)n2)cc1S(N)(=O)=O`: the residual activity stood at 97%.

In the case of `O=C1Nc2ccc(Cl)cc2/C1=C/c1cc(Cl)c(O)c(Cl)c1`, the residual activity is 95.4%.

Take `O=C1NC(=O)/C(=C/c2ccc3c(c2)OC(F)(F)O3)S1`: the residual activity came out at 84.2%.

For a further experiment, the target named is PRKD3 (human) (UniProt O94806). Described as above. The conditions noted are these: compound 0.5 µM; ATP 10 µM.
For `Cc1ccc(Nc2nccc(N(C)c3ccc4c(C)n(C)nc4c3)n2)cc1S(N)(=O)=O`, the residual activity came out at 90%.

Regarding `O=C1Nc2ccc(Cl)cc2/C1=C/c1cc(Cl)c(O)c(Cl)c1`, the residual activity worked out at 80.7%.

For the compound `O=C1NC(=O)/C(=C/c2ccc3c(c2)OC(F)(F)O3)S1`, the residual activity was 91.4%.

A further experiment addresses PBK (human) (UniProt Q96KB5). The description is as above. The note with it: compound 0.5 µM; ATP 10 µM.
Regarding `Cc1ccc(Nc2nccc(N(C)c3ccc4c(C)n(C)nc4c3)n2)cc1S(N)(=O)=O`, the residual activity amounted to 101%.

Regarding `O=C1Nc2ccc(Cl)cc2/C1=C/c1cc(Cl)c(O)c(Cl)c1`, the residual activity worked out at 86.1%.

For the compound `O=C1NC(=O)/C(=C/c2ccc3c(c2)OC(F)(F)O3)S1`, the residual activity is 91.8%.

The target of the next experiment is PAK1 (human) (UniProt Q13153). Described as above. The conditions noted are these: compound 0.5 µM; ATP 10 µM.
PAK1 (human), sequence (Q13153 whole entry, looked up): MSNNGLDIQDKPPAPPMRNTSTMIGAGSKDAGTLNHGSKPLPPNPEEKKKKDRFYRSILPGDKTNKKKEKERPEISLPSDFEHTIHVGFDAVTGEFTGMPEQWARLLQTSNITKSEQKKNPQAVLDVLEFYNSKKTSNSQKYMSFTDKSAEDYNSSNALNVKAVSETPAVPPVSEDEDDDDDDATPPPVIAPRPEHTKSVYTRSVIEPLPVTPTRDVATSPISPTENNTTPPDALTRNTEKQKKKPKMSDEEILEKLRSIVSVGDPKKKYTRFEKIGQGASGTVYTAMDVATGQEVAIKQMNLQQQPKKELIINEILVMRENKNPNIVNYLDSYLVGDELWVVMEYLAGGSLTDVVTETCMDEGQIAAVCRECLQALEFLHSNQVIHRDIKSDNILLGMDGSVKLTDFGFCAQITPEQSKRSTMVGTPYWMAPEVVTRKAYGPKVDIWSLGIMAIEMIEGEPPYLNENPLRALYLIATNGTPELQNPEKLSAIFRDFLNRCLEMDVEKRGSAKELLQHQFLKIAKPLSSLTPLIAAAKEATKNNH
Consider `Cc1ccc(Nc2nccc(N(C)c3ccc4c(C)n(C)nc4c3)n2)cc1S(N)(=O)=O`, for which the residual activity amounted to 89.1%.

Turning to `O=C1Nc2ccc(Cl)cc2/C1=C/c1cc(Cl)c(O)c(Cl)c1`, the residual activity worked out at 97.2%.

Take `O=C1NC(=O)/C(=C/c2ccc3c(c2)OC(F)(F)O3)S1`: the residual activity was 93.3%.

The next experiment has as its target SRPK2 (human) (UniProt P78362). The experiment is described as above. The note with it: compound 0.5 µM; ATP 10 µM.
`Cc1ccc(Nc2nccc(N(C)c3ccc4c(C)n(C)nc4c3)n2)cc1S(N)(=O)=O`: the residual activity was determined as 104%.

Regarding `O=C1Nc2ccc(Cl)cc2/C1=C/c1cc(Cl)c(O)c(Cl)c1`, the residual activity is 95.2%.

For `O=C1NC(=O)/C(=C/c2ccc3c(c2)OC(F)(F)O3)S1`, the residual activity came out at 105%.

A further experiment concerns the target PRKG1 (human) (UniProt Q13976). The description is as above. The conditions noted are these: compound 0.5 µM; ATP 10 µM.
Take `Cc1ccc(Nc2nccc(N(C)c3ccc4c(C)n(C)nc4c3)n2)cc1S(N)(=O)=O`: the residual activity was 103% and 95.1%.

As to `O=C1Nc2ccc(Cl)cc2/C1=C/c1cc(Cl)c(O)c(Cl)c1`, the residual activity was 102% and 96.8%.

In the case of `O=C1NC(=O)/C(=C/c2ccc3c(c2)OC(F)(F)O3)S1`, the residual activity was 109% and 95.6%.
